Source: patent publication US10758551B2, “Methods and compositions for treating pancreatitis” (BAYLOR RESEARCH INSTITUTE, priority 2015, dated 2020)
“Also recorded” adds a separate entry of the source.

Columns and labels:
[1] = test system: cerulein-induced pancreatitis; test: Standard chronic pancreatitis model: cerulein 7 hourly IP injections once per week for 4 weeks, WA one hour prior; type: in vivo, C57BL/6 mice
Description: (§1) C57BL/6 mice were injected with 7 hourly IP injections of cerulein at […] once per week for 4 weeks in a standard model for chronic pancreatitis or 6 hourly IP injections of cerulein at […] twice per week for 8 weeks in a stringent model for chronic pancreatitis. WA was administered one hour prior to cerulein beginning in week 1 in the standard model and beginning in week 5 in the stringent model of chronic pancreatits. Incidence of pancreatitis was confirmed by histopathological analysis of pancreas tissue, serum amylase levels, and neutrophil infiltration into pancreatic tissue. Cell proliferation was assessed by Ki67 staining. Pancreatic stone protein REG1α was analyzed by immunohistochemical staining. ImageJ software was used to quantify the area of positively stained cells.
(§2) Chronic pancreatitis (CP) model: Animals were subjected to repeated episodes of acute pancreatitis by supramaximal dose (50 ug/kg) of cerulein administration. Standard Chronic pancreatitis: Mice were fasted overnight prior cerulein injection with ad-libitum supply of water. CP was induced when cerulein was injected i.p. (50 ug/kg) every hour for a total of 7 injection, this injection was repeated once a week for 4 weeks. Control mice were injected with saline as sham treatment. Another group of mice received WA (1.25 mg/kg) 1 hr before the first cerulein injection every week (n=6 mice/group). Mice were then sacrificed and blood and tissue were processed as previously mentioned. Stringent chronic pancreatitis: Mice were fasted overnight prior cerulein injection with ad-libitum supply of water. CP was induced when cerulein was injected i.p. (50 ug/kg) every hour for a total of 6 injection, this injection was repeated twice a week for 8 weeks. WA (0.625 mg/kg) was injected 1 hr prior to first cerulein injection but administration was initiated at week 5 and continued till the end of the experiment. Mice were then sacrificed and tissue was harvested as previously mentioned.
Amylase activity assay: Serum samples obtained from mice after treatment were aliquoted and stored at −80 C until further analysis. Serum was analyzed for amylase activity as per the manufacturer's protocol.
(§3) Histology and Immunohistochemistry: Pancreas tissue was placed in 10% formalin immediately after harvesting and fixed for at least 48 hrs at 4° C. before processing. Tissue samples were paraffin embedded and 5 um sections were made and mounted on slides for staining. Hematoxylin and Eosin (H&E) staining was performed for histopathological evaluation. Sirius Red Staining was performed as per manufacturer's protocol on the sections to evaluate fibrotic change in the tissue section. To perform immunohistochemical staining, the sections were deparaffinized in xylene and rehydrated using ethanol. The slides were incubated in a citrate buffer of pH 6 with at 97° C. for 20 minutes. Following the antigen retrieval process, the slides were carefully washed 3 times for 5 minutes in Tris-buffered saline (TBS) containing 0.025% Triton X-100. The slides were blocked in 1% bovine serum albumin (BSA) in TBS for 2 hours at room temperature to block non-specific binding of the antibodies. Then the slides were incubated overnight with primary antibodies which were diluted in TBS with 1% BSA. The following day, the slides were gently rinsed 3 times for 5 minutes in TBS 0.025% Triton X-100. TRITC or FITC labelled secondary antibodies from Invitrogen were diluted in TBS with 1% BSA. The slides were counterstained with DAPI and mounted for microscopic analysis. ImageJ software was used to perform semi-quantitative analysis of the staining.
(§4) qRT-PCR: Pancreas tissue samples were stored in RNAlater at −80° C. until extraction procedure. Total RNA from the pancreas tissue were extracted using TRIzol reagent. Tissue was homogenized and debris was removed by centrifugation. Chloroform was added to separate the RNA from other biomolecules, and further precipitated using iso-propanol. […]

[2] = test system: cerulein-induced pancreatitis; test: as above; type: in vivo, C57BL/6 mice; conditions: WA (1 mg/kg) without cerulein; FIG. 2B
[3] = test system: cerulein induced acute pancreatitis; test: Acute pancreatitis model: cerulein 7 hourly IP injections, WA one hour prior; type: in vivo, C57BL/6 mice; conditions: WA 1.25 mg/kg, n=5/group
Description: Acute pancreatitis (AP) model: Animals were fasted overnight prior to induction of pancreatitis by cerulein, water was given ad-libitum. Mice were injected with Cerulein (50 ug/kg intraperitoneally) or saline every hour for a total of 7 injections and were sacrificed 1 hr after the last injection. WA (1.25 mg/kg) was administered 1 hr before first cerulein injection (n=5 mice/group). […] Pancreas was divided for immunohistochemistry, RNA extraction, protein extraction, immune cell infiltration analysis. Amylase activity assay: Serum samples obtained from mice after treatment were aliquoted and stored at −80 C until further analysis. Serum was analyzed for amylase activity as per the manufacturer's protocol. Immune cell infiltration assay: Cell suspension was prepared from the pancreas tissue after digestion with collagenase (2 mg/mL) at 37° C. for 15 mins. Tissue was further mechanically digested by pipetting several times, the suspension was then washed and filtered to obtain only the single cell fraction. Cell suspension obtained was used for flow cytometric analysis of infiltrated immune cells. 1×10^6 pancreatic cells were labelled with anti-CD45, anti-CD11b, anti-CD14, and anti-Ly6g antibodies. Stained cells were detected using FACScanto II and data were analyzed using FlowJo software. To model acute pancreatitis, C57BL/6 mice were injected with 7 hourly IP injections of cerulein at 50 μg/kg. WA (1.25 mg/kg) was administered one hour prior to cerulein. […] Inflammatory cell infiltration was increased in cerulein-treated mice (FIGS. 18B, 18E, and 18H) compared to controls (FIGS. 18A, 18D, and 18G), but were reduced in cerulein and WA-treated mice (FIGS. 18C, 18F, and 18I) compared to cerulein-treated mice.

[4] = test system: cerulein-induced pancreatitis; test: Stringent chronic pancreatitis model: cerulein 6 hourly IP injections twice per week for 8 weeks, WA from week 5; type: in vivo, C57BL/6 mice; conditions: for Histopathology (H&E, Sirius red): pancreas damage, acinar cell atrophy, mononuclear cell infiltration, fibrosis: stringent model, cerulein (50 ug/kg) + Withaferin vs cerulein only, FIGS. 3C, 3F, six animals per group
Description: as §1, §2, §3
as §4, with “iso-propanol. RNA pellet was washed with ethanol and quantified using nanodrop 2000. cDNA synthesis was performed using high capacity cDNA reverse transcription kit as per manufacturer's protocol.” for “iso-propanol.”

NF-κB p65 = NF-κB p65 immunohistochemical staining and protein blot of pancreas of cerulein treated mice; type: in vivo, mouse; conditions: WA + cerulein vs cerulein treated mice
Description: as §3, with “The slides were counterstained with DAPI and mounted for microscopic analysis.” left out

Histopathology (H&E) of pancreas, WA alone [2]: normal phenotype
SMILES: CC1=C(CO)C(=O)O[C@@H]([C@@H](C)[C@H]2CC[C@H]3[C@@H]4C[C@H]5O[C@]56[C@@H](O)C=CC(=O)[C@]6(C)[C@H]4CC[C@]23C)C1 [WA, (4β,5β,6β,22R)-5,6-Epoxy-4,22,27-trihydroxy-1-oxoergosta-2,24-dien-26-oic acid 6-lactone]
Ki67+ area in pancreas (ImageJ, semi-quantitative) ([1]; Standard CP model, FIG. 9A, n=5/group): significantly lower Ki67+ area
Histopathology (H&E): acinar cell atrophy, mononuclear cell infiltration, severity of chronic pancreatitis ([1]; WA + cerulein (50 ug/kg) vs cerulein only, FIG. 2D, six animals per group): significantly reduced acinar cell atrophy and infiltration of mononuclear cells; also recorded: significantly reduced severity of chronic pancreatitis
Serum amylase levels ([1]; WA + cerulein treated mice, cerulein only 952.8±228.8, p=0.045, FIG. 4): 696.3 ± 98.6 nmol/min/mL
Neutrophils migrated into pancreas ([1]; WA treated mice, cerulein only 3,742±1,188, p=0.03, FIGS. 7F, 7G, standard or stringent CP model not stated): 719±276 cells per objective field at a magnification of ×200
REG1α immunohistochemical staining of pancreas ([1]; WA treatment, cerulein only 3,779±448, p=0.003, brought to control levels, model not stated): 544±43
Ki67+ cells in the pancreas ([1]; WA+cerulein, cerulein only 20.0±16.0, FIG. 8, 9A-B (percentage of Ki67+ cells, ImageJ), model not stated): 3.8±2.9
Ly6g+ granulocyte infiltration of pancreas (immunohistochemical staining) ([1]; cerulein + WA vs cerulein, FIG. 7F, n=5/group, model not stated): significantly reduced inflammatory cell infiltration
Serum amylase level compared to cerulein treated mice ([1]; serum at week 3 and week 4, one hour after last injection, FIG. 4, n=6/group): significantly lower serum amylase level
Inflammasome gene expression in pancreas (qRT-PCR) ([1]; standard CP model, HMGB1, Pycard, NLRP3, IL-18, IL-1b, FIG. 13, n=4/group): decreased; also recorded: significantly reduced inflammasome related genes
Pro-inflammatory and pro-apoptotic gene expression in pancreas (qRT-PCR) ([1]; standard CP model, IL-6, TNFα, Nos2, Casp3, Casp7, Bax, FIG. 15, n=4/group): decreased; also recorded: significantly reduced most of these gene signals
ER stress gene expression in pancreas (qRT-PCR) ([1]; standard CP model, Perk, Atf6, Ern1, Eif2a, Atf4, xbp1, Chop, FIG. 11, n=4/group): decreased; also recorded: significantly reduced ER stress gene signals
IL-6 in pancreas tissue lysate (Luminex) ([1]; standard chronic pancreatitis, FIG. 5A, n=4/group): effectively blocked production
MCP-1 in pancreas tissue lysate (Luminex) ([1]; standard chronic pancreatitis, FIG. 5B, n=4/group): effectively blocked production
Inflammatory cell infiltration into pancreas (flow cytometry) ([3]; CD45+CD11b+ myeloid cells, CD45+Ly6g+ granulocytes, CD45+CD14+ monocytes, FIG. 18): reduced percentage of infiltrating cells
Leucocyte (CD45+) infiltration into pancreas (flow cytometry) ([3]; FIG. 19G-J): reduced percentage of infiltrating cells
Serum amylase compared to cerulein treated mice ([3]; serum one hour after last cerulein injection, FIG. 17): significantly decreased; also recorded: significantly reduced serum amylase
Ki67+ area in pancreas (ImageJ, semi-quantitative) ([4]; Stringent CP Model, FIG. 9B, n=5/group): significantly lower Ki67+ area
Inflammasome gene expression in pancreas (qRT-PCR) ([4]; stringent CP model, HMGB1, NLRP3, IL-1b, FIG. 14, n=4/group): decreased; also recorded: significantly reduced inflammasome related genes
Pro-inflammatory and pro-apoptotic gene expression in pancreas (qRT-PCR) ([4]; stringent CP model, IL-6, TNFα, Nos2, Bax, FIG. 16, n=4/group): decreased; also recorded: significantly reduced most of these gene signals
ER stress gene expression in pancreas (qRT-PCR) ([4]; stringent CP model, Perk, Ern1, Atf6, Chop, xbp1, eif2a, Atf4, FIG. 12, n=4/group): decreased; also recorded: significantly reduced ER stress gene signals
IL-6 in pancreas tissue lysate (Luminex) ([4]; stringent chronic pancreatitis, FIG. 6A, n=4/group): effectively blocked production
MCP-1 in pancreas tissue lysate (Luminex) ([4]; stringent chronic pancreatitis, FIG. 6B, n=4/group): effectively blocked production
Histopathology (H&E, Sirius red): pancreas damage, acinar cell atrophy, mononuclear cell infiltration, fibrosis [4]: significantly reduced acinar cell atrophy and infiltration of mononuclear cells
Histopathology (H&E, Sirius red): pancreas damage, acinar cell atrophy, mononuclear cell infiltration, fibrosis ([4]; listed as Withaferin): significantly reduced pancreas damage and fibrosis
NF-κB p65 translocation into the nucleus (immunohistochemical staining of pancreatic tissue) (NF-κB p65; FIG. 10C): significantly prevented NF-κB translocation into the nucleus
NF-κB P65 protein expression in pancreatic lysate (protein blot) (NF-κB p65; FIG. 10D): significantly inhibited overexpression
